Reference: patent EP4582426A1, “PAN-KRAS INHIBITOR COMPOUND” (Adlai Nortye Biopharma Co., Ltd., priority 2022, dated 2024)

Assays:
[1] = test system: AsPC-1 (G12D); test: In vitro cell proliferation inhibition test (CellTiter-Glo Luminescent Cell Viability Assay); type: cell-based; conditions: AsPC-1 cell line, Pancreas, KRAS (p.G12D), cells and compounds co-incubated 72 hours
Text: (§1) Due to the diversity of RAS mutations and in order to evaluate the activity of compounds in different RAS mutant cell lines, we selected KRAS^WT, KRAS^G12C, KRAS^G12D), KRAS^G12V and BRAF mutant cell lines (see the table below) for in vitro activity evaluation and screening of compounds .
(§2) Experimental protocol: CellTiter-Glo® Cell Luminescent Viability Assay (Promega)
(§3) According to the doubling time of different cell lines, different numbers of cells (1000-5000 cells/well) were inoculated into 96-well plates containing 180 µl of the corresponding medium, and cultured overnight in a 37°C cell incubator containing 5% CO2. On the second day, the compound to be tested was pre-diluted 3-fold with the medium, the highest concentration was 100 µM, and there were 10 concentration gradients in total; then 20 µl of the medium containing different concentrations of the compound was added to the cells in the 96-well plate to ensure the final concentration of the compound to be up to 10 µM, with 10 concentration gradients of 3-fold dilutions. After co-incubating cells and compounds for 72 hours, the 96-well plate was taken out of the incubator, placed at room temperature for 30 minutes, and then 25 µl CellTiter-Glo® Reagent was added to each well to mix well, and incubated at room temperature for 10 minutes, and then 100 µl of the sample was transferred to a white 96-well plate (OptiPlateTM-96, PerkinElmer), the […] signal value was read using a multi-functional microplate reader (SpectraMax® i3x, Molecular devices). Subsequently, the signal value was standardized, and the four-parameter fitting regression equation was used for curve fitting to calculate the half maximal inhibitory concentration (IC50) of the compound on the cell line. Table 3: Antiproliferative activity of compounds of the present invention on KRAS cell mutants

[2] = test system: SW480 (G12V); test: as above; type: cell-based; conditions: SW480 cell line, Large intestine, Colon, KRAS (p.G12V), cells and compounds co-incubated 72 hours
Text: as §1, §2, §3

Compound	IC50 [1]	IC50 ([1]; listed as 4')	IC50 [2]	IC50 ([2]; listed as 4')
CCn1c(-c2cc(C#CCN3CCO[C@@H](C)C3)cnc2[C@H](C)OC)c2c3cc(ccc31)-c1csc(n1)C[C@H](NC(=O)[C@H]1C[C@@H]1C)C(=O)N1CCC[C@H](N1)C(=O)OCC(C)(C)C2 (single isomer, unassigned) [Example 4]	4.9 nM	523 nM	2.9 nM	813 nM
CCn1c(-c2cc(C#CCN3CCOCC3)cnc2[C@H](C)OC)c2c3cc(ccc31)-c1csc(n1)C[C@H](NC(=O)C1CC1)C(=O)N1CCC[C@H](N1)C(=O)OCC(C)(C)C2 [Example 54, N-((6^3S,4S,Z)-1^1-ethyl-1^2-(2-((S)-1-methoxyethyl)-5-(3-morpholinoprop-1-yn-1-yl)pyridin-3-yl)-10,10-dimethyl-5,7-dioxo-6^1,6^2,6^3,6^4,6^5,6^6-hexahydro-1^1H-8-oxa-2(4,2)-thiazola-1(5,3)-indola-6(1,3)-pyridazinacycloundecaphane-4-yl)cyclopropanecarboxamide]	17.3 nM		35 nM	
(1S,2S)-N-((6^3S,4S,Z)-1^2-(5-(3-(1,1-dioxidothiomorpholino)prop-1-yn-1-yl)-2-((S)-1-methoxyethyl)pyridin-3-yl)-1^1-ethyl-10,10-dimethyl-5,7-dioxo-6^1,6^2,6^3,6^4,6^5,6^6-hexahydro-1^1H-8-oxa-2(4,2)-thiazola-1(5,3)-indola-6(1,3)-pyridazinacycloundecaphane-4-yl)-2-methylcyclopropane-1-carboxamide [Example 43]	0.42 nM		0.68 nM	
CCn1c(-c2cc(C#CCN3CCC4(CC3)CN(C)C4)cnc2[C@H](C)OC)c2c3cc(ccc31)-c1csc(n1)C[C@H](NC(=O)[C@H]1C[C@@H]1C)C(=O)N1CCC[C@H](N1)C(=O)OCC(C)(C)C2 [Example 50, (1S,2S)-N-((6^3S,4S,Z)-1^1-ethyl-1^2-(2-((S)-1-methoxyethyl)-5-(3-(2-methyl-2,7-diazaspiro[3.5]nonan-7-yl)prop-1-yn-1-yl)pyridin-3-yl)-10,10-dimethyl-5,7-dioxo-6^1,6^2,6^3,6^4,6^5,6^6-hexahydro-1^1H-8-oxa-2(4,2)-thiazola-1(5,3)-indola-6(1,3)-pyridazinacycloundecaphane-4-yl)-2-methylcyclopropane-1-carboxamide]	1.2 nM		15.2 nM	
(1r,2R,3S)-N-((6^3S,4S,Z)-1^1-ethyl-1^2-(5-(3-((R)-3-(hydroxymethyl)morpholino)prop-1-yn-1-yl)-2-((S)-1-methoxyethyl)pyridin-3-yl)-10,10-dimethyl-5,7-dioxo-6^1,6^2,6^3,6^4,6^5,6^6-hexahydro-1^1H-8-oxa-2(4,2)-thiazola-1(5,3)-indola-6(1,3)-pyridazinacycloundecaphane-4-yl)-2,3-dimethylcyclopropane-1-carboxamide [Example 38]	0.07 nM		0.18 nM	
CCn1c(-c2cc(C#CC3CCNCC3)cnc2[C@H](C)OC)c2c3cc(ccc31)-c1csc(n1)C[C@H](NC(=O)[C@H]1C[C@@H]1C)C(=O)N1CCC[C@H](N1)C(=O)OCC(C)(C)C2 [Example 48, (1S,2S)-N-((6^3S,4S,Z)-1^1-ethyl-1^2-(2-((S)-1-methoxyethyl)-5-(piperidin-4-ylethynyl)pyridin-3-yl)-10,10-dimethyl-5,7-dioxo-6^1,6^2,6^3,6^4,6^5,6^6-hexahydro-1^1H-8-oxa-2(4,2)-thiazola-1(5,3)-indola-6(1,3)-pyridazinacycloundecaphane-4-yl)-2-methylcyclopropane-1-carboxamide]	5.4 nM		1.7 nM	
